Source: patent US20250034216A1, “STEREOSELECTIVE COVALENT LIGANDS FOR ONCOGENIC AND IMMUNOLOGICAL PROTEINS” (The Scripps Research Institute, priority 2021, published 2025)

Legend:
Test in all cases: IA-DTB cysteine engagement
Assay type in all cases: binding
DHX9_C608 = biological target: T1, DHX9_C608 (Homo sapiens, UniProt Q08211); details: 22Rv1 cells, 20 μM probe, 1 h, relative to DMSO
T1 construct: endogenous in cells; host or cells: 22Rv1
Outline: (§1)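 Competitive chemoproteomics: residual cysteine reactivity toward IA-DTB in lysates from probe-treated cells was quantified by TMT reporter ions relative to DMSO-treated controls. Replicates sharing cell line, probe, concentration and duration were averaged.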

LIMK1_C349 = biological target: T2, LIMK1_C349 (Homo sapiens, UniProt P53667); details: 22Rv1 cells, relative to DMSO; for % engagement LIMK1_C349: 20 μM probe, 1 h; for % engagement LIMK1_349: 5 μM probe, 1 h (FIG. 5B)
T2 construct: endogenous in cells; host or cells: 22Rv1
Outline: as §1

BCKDK_C111 = biological target: T3, BCKDK_C111 (Homo sapiens, UniProt O14874); details: 22Rv1 cells, 20 μM probe, 1 h, relative to DMSO
T3 construct: endogenous in cells; host or cells: 22Rv1
Outline: as §1

PRORP_C507 = biological target: T4, PRORP_C507 (Homo sapiens, UniProt O15091); details: 22Rv1 cells, 20 μM probe, 1 h, relative to DMSO
T4 construct: endogenous in cells; host or cells: 22Rv1
T4 sequence (O15091 46-583): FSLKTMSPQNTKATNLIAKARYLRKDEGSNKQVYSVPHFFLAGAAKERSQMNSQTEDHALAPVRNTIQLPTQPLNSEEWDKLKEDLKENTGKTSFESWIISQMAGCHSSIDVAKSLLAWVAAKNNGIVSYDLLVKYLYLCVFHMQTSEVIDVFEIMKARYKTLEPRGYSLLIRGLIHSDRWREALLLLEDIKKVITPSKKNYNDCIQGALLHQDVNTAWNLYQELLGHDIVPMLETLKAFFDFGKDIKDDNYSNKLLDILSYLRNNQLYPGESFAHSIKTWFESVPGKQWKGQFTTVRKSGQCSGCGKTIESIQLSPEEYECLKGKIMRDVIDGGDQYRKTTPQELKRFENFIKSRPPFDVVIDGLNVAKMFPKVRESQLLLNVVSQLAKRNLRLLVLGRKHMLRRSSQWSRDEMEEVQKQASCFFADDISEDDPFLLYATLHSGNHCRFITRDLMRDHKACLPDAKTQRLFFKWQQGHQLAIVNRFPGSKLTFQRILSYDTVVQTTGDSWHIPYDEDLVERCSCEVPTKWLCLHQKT
Outline: as §1

NUP205_C224 = biological target: T5, NUP205_C224 (Homo sapiens, UniProt Q92621); details: 22Rv1 cells, 20 μM probe, 1 h, relative to DMSO
T5 construct: endogenous in cells; host or cells: 22Rv1
Outline: as §1

SLC12A8_C660 = biological target: T6, SLC12A8_C660 (Homo sapiens, UniProt A0AV02); details: 22Rv1 cells, 20 μM probe, 1 h, relative to DMSO
T6 construct: endogenous in cells; host or cells: 22Rv1
T6 sequence (A0AV02 1-714): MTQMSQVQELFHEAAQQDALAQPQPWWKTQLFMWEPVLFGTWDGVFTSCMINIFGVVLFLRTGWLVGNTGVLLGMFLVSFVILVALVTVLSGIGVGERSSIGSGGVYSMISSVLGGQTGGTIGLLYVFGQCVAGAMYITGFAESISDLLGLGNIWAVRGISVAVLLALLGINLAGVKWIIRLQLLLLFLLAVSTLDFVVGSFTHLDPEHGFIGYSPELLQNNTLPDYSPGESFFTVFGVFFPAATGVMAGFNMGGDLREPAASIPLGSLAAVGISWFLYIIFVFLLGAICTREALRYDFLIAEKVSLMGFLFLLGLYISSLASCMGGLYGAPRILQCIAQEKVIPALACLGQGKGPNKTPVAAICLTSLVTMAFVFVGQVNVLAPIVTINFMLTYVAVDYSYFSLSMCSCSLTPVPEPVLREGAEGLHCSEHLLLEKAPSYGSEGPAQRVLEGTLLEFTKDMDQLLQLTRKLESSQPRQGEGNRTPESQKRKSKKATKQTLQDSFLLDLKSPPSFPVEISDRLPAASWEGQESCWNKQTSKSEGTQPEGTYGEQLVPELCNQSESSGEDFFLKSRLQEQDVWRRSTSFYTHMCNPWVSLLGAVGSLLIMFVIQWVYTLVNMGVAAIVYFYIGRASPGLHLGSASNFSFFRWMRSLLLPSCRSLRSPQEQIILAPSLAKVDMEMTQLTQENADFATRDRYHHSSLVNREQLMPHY
Outline: as §1

T5 sequence (Q92621 whole entry): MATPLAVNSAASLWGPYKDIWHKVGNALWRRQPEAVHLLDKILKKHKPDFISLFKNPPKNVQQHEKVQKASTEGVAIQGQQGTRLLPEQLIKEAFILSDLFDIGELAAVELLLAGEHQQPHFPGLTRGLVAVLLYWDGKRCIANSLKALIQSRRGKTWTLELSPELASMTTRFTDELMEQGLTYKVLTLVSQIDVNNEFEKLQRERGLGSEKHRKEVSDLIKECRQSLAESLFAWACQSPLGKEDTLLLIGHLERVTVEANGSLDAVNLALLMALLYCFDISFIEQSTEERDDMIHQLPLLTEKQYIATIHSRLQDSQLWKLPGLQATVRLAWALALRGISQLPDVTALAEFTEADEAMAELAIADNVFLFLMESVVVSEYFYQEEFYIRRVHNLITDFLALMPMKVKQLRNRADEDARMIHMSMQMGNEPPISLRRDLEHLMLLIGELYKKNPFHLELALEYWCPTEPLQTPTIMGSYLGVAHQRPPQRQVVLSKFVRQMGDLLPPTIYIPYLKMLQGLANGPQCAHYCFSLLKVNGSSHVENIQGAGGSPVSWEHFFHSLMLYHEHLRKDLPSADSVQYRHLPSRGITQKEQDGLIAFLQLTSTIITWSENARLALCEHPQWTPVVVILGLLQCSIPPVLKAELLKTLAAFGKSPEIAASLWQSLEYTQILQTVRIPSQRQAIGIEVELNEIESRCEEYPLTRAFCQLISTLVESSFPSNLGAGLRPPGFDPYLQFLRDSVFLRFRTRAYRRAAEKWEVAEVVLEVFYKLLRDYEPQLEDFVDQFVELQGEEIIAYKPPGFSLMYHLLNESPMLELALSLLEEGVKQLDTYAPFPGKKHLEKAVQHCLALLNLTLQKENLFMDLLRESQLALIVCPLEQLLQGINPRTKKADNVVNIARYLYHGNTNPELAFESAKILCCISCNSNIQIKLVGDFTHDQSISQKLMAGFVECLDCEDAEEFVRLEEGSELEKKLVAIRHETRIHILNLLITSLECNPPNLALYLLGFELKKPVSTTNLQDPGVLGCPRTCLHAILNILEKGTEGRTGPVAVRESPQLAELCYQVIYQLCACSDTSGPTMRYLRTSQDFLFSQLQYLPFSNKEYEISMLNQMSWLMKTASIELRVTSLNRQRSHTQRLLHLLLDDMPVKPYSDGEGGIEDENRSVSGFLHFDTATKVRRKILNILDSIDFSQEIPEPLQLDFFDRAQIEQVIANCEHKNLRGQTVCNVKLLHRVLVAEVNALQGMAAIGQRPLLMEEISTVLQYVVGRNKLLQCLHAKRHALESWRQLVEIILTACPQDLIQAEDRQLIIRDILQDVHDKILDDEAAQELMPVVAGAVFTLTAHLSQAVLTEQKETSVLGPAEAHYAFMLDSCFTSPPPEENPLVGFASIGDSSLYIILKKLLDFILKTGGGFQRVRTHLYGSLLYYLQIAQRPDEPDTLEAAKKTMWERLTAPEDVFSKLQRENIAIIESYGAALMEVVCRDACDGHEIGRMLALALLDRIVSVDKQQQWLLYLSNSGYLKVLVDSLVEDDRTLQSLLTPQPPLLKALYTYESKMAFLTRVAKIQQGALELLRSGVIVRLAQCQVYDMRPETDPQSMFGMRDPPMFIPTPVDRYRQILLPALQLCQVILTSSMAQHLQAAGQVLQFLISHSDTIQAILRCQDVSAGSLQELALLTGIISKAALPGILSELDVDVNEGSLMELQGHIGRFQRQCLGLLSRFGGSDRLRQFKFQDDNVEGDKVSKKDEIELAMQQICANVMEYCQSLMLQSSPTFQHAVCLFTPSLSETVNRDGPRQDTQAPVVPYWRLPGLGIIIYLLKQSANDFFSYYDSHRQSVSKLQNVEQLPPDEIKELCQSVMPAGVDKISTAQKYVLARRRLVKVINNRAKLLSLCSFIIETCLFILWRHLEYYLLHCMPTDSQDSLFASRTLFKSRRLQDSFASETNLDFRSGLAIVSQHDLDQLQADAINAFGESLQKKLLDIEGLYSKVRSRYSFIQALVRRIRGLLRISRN
T2 sequence (P53667 whole entry): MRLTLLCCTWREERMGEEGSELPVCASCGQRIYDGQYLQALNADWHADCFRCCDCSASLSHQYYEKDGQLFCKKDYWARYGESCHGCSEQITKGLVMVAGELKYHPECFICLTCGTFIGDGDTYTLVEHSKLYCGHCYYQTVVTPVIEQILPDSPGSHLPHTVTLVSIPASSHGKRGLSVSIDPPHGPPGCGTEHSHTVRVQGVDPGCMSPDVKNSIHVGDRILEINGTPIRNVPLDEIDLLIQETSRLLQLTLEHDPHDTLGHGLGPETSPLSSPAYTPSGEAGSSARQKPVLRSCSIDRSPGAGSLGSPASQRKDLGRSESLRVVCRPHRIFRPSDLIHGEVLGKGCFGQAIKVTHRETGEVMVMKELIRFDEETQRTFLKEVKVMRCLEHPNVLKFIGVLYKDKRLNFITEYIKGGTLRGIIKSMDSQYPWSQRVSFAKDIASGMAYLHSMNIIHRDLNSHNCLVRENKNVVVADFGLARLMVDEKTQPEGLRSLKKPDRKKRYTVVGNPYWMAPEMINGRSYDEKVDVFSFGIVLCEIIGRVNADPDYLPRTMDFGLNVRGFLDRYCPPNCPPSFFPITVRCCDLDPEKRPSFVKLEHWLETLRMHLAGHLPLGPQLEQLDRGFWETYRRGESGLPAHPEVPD
T1 sequence (Q08211 whole entry): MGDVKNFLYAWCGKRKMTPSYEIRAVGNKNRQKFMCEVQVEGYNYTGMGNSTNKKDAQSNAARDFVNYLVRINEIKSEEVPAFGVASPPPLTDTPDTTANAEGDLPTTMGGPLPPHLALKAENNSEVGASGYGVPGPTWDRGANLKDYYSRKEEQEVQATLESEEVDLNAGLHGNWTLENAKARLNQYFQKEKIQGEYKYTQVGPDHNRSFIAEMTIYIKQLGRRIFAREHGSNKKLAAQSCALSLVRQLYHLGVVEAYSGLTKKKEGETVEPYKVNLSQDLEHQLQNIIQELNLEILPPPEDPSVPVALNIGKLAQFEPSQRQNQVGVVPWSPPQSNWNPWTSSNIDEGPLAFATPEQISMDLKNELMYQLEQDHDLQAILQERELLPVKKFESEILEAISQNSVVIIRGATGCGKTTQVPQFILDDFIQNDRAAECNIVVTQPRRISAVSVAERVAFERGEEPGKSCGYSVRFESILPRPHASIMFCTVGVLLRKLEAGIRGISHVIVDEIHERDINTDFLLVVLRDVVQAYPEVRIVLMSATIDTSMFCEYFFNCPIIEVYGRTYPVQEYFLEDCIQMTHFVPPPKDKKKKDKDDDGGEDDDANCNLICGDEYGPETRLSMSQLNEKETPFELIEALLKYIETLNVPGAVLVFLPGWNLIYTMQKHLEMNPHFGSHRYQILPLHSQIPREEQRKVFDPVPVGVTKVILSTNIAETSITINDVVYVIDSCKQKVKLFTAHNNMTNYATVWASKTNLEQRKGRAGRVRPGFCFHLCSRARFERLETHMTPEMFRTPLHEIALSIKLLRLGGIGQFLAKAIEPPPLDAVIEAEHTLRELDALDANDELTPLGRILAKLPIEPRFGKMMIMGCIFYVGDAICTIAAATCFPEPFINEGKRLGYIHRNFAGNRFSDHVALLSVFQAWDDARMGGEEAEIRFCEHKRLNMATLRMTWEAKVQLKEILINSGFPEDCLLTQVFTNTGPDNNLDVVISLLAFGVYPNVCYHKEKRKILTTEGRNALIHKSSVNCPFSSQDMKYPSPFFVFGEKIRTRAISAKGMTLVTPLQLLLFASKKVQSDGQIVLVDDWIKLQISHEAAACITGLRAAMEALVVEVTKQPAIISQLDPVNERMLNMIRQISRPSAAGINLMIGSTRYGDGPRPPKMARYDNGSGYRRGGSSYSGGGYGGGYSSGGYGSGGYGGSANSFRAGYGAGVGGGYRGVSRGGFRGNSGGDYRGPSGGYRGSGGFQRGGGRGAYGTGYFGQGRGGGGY

| SMILES | % engagement DHX9_C608 (DHX9_C608) | % engagement LIMK1_C349 (LIMK1_C349) | % engagement BCKDK_C111 (BCKDK_C111) | % engagement PRORP_C507 (PRORP_C507) | % engagement NUP205_C224 (NUP205_C224) | % engagement SLC12A8_C660 (SLC12A8_C660) | % engagement LIMK1_349 (LIMK1_C349) |
| --- | --- | --- | --- | --- | --- | --- | --- |
| C=CC(=O)N1C[C@H](c2ccc(Br)cc2)[C@@H]1C(=O)Nc1cccc2cccnc12 [MY-1B, (2R,3S)-1-acryloyl-3-(4-bromophenyl)-N-(quinolin-8-yl)azetidine-2-carboxamide] | −11% | 93% | 14.5% | 74.25% | 6% | 61.5% | 90.88% |
| C=CC(=O)N1C[C@@H](c2ccc(Br)cc2)[C@H]1C(=O)Nc1cccc2cccnc12 [MY-1A, (2S,3R)-1-acryloyl-3-(4-bromophenyl)-N-(quinolin-8-yl)azetidine-2-carboxamide] | −10.5% | 45.25% | 17.25% | 6.75% | 28.5% | 77.5% |  |

Now from value to molecule:

| % engagement DHX9_C608 (DHX9_C608) | % engagement LIMK1_C349 (LIMK1_C349) | % engagement BCKDK_C111 (BCKDK_C111) | % engagement PRORP_C507 (PRORP_C507) | % engagement NUP205_C224 (NUP205_C224) | % engagement SLC12A8_C660 (SLC12A8_C660) | % engagement LIMK1_349 (LIMK1_C349) | SMILES |
| --- | --- | --- | --- | --- | --- | --- | --- |
| 69.5% | 43.25% | 76.75% | 34.5% | 30.5% | 68.5% |  | C=CC(=O)N1C[C@H](c2ccc(Br)cc2)[C@H]1C(=O)Nc1cccc2cccnc12 [MY-3B, (2S,3S)-1-acryloyl-3-(4-bromophenyl)-N-(quinolin-8-yl)azetidine-2-carboxamide] |
|  |  |  |  |  |  | −15.75% | CC#CC(=O)N1C[C@H](c2ccc(Br)cc2)[C@@H]1C(=O)Nc1cccc2cccnc12 [MY-45B, (2R,3S)-3-(4-bromophenyl)-1-(but-2-ynoyl)-N-(quinolin-8-yl)azetidine-2-carboxamide] |
| 16% | 21.5% | 19.5% | 1.25% | 100% | 41% |  | C=CC(=O)N1C[C@H](c2ccc(Br)cc2)[C@H]1C(=O)Nc1cccc2cccnc12 [MY-3A, (2S,3S)-1-acryloyl-3-(4-bromophenyl)-N-(quinolin-8-yl)azetidine-2-carboxamide] |
